Earlier results as cited in patent US20060198888A1, “Tolperisone-containing pharmaceutical preparation with controllable active-substance release for oral administration” (Sanochemia Pharmazeutika AG, priority 2004, published 2006).
Like-named read-outs stand apart in the source and are kept apart here.

What was measured:
[1] = rat
[2] = JP-A-53-40779

Structure (SMILES): Cc1ccc(C(=O)C(C)CN2CCCCC2)cc1 (stereo not drawn) [R(−) tolperisone]
- fraction converted by in-vivo inversion into S(+) tolperisone [1]: up to 20%
- pharmacological effect ([2]; listed as 1-tolperisone): vaso- or bronchodilatory effect

Structure (SMILES): Cc1ccc(C(=O)C(C)CN2CCCCC2)cc1 (stereo not drawn) [S(+) tolperisone]
- extent of in-vivo inversion into R(−) tolperisone [1]: up to 20%
- pharmacological effect ([2]; listed as d-tolperisone): muscle-relaxing effect
